Key:
Format in all cases: cell-based
[1] = tested on: MDA-MB-231 breast cancer cells; experiment: MTT assay, cell viability of MDA-MB-231 breast cancer cells; conditions: MDA-MB-231 cells
Procedure: (§1) Antiproliferative effect of FAS inhibitors on MCF-7 cells was determined by performing MTT assay. Roughly, 10,000 cells per well were plated in 96-well cell culture microplate (Costar, USA) and incubated overnight in full media (DMEM containing 10% FBS) for cells to adhere to the plate. Cells were then treated with various concentrations of inhibitors and vehicle for 24 hrs in serum free media. Cell viability was evaluated by the MTT (Sigma-Aldrich, St. Louis, Mont.) assay. The absorbance of solubilized formazan was read at 570 nm using ELISA reader (Bio-TEK, Synergy-1).
(§2) We treated H460 lung cancer cells, MDA-MB-231 breast cancer cells, and PC-3 prostate cancer cells with the FAS inhibitor, Compound 1A.

[2] = tested on: PC-3 prostate cancer cells; experiment: MTT assay, cell viability of PC-3 prostate cancer cells; conditions: PC-3 cells
Procedure: as §1, with “Cells were then treated with various concentrations of inhibitors and vehicle for 24 hrs in serum free media.” left out
as §2

[3] = tested on: H460 lung cancer cells; experiment: MTT assay, cell viability of H460 lung cancer cells
Procedure: as §1, §2

[4] = tested on: MCF-7 breast cancer cells; experiment: MTT assay, cell viability of MCF-7 breast cancer cells; conditions: Homo sapiens, MCF7; MCF-7 cells, 24 hours of treatment
Procedure: An MTT assay was performed with the FAS inhibiting compounds of Formulae II, III, IV and V (e.g., Compound 1A) on MCF-7 breast cancer cells, with an IC50 of about […] after 24 hours of treatment. The results are illustrated in FIG. 2.
as §1

| SMILES | anticancer effect (MTT assay), fragment alone [1] | anticancer effect (MTT assay), fragment alone [2] | anticancer effect (MTT assay), fragment alone [3] | cell viability (MTT) ([1]; 24-hr treatment (FIG. 5: 10 μM)) | cell viability (MTT) ([2]; 72-hr treatment (FIG. 6B: 10 μM)) | IC50 [4] [µM] | cell viability (MTT) ([3]; 24-hr treatment (FIG. 4: 10 μM)) |
| --- | --- | --- | --- | --- | --- | --- | --- |
| O=C(CCn1cc(Br)c(=O)[nH]c1=O)OCCO [5-Bromouracil ester, 2-Hydroxyethyl3-(5-bromo-2,4-dioxo-3,4-dihydropirimidin-1(2H)-yl)propanoate] | no anticancer effect | no anticancer effect | no anticancer effect | – | – | – | – |
| O=c1[nH]cc(Br)c(=O)[nH]1 [5-Bromouracil] | no anticancer effect | no anticancer effect | no anticancer effect | – | – | – | – |
| CCCCCCCCCCCCCCCCOC(=O)CCn1cc(Br)c(=O)[nH]c1=O [Compound 1A, Hexadecyl 3-(5-bromo-2,4-dioxo-3,4-dihydropyrimidin-1(2H)-yl)propanoate] | – | – | – | significantly reduced the viability | reduced the viability | ~10 | significantly reduced the viability |

— patent US10556872B2, “Fatty acid synthase inhibitors and methods of use” (Hampton University, priority 2017, dated 2020)
